Results as given in doi:10.1101/2025.06.03.657556v1 (biorxiv, 2025).

Columns and labels:
RhoA (HEK 293F cells) = RhoA (HEK 293F cells) (Homo sapiens, UniProt P61586); assay: fluorescent RhoA-GTP probe, F488/F405 ratio, HEK […] cells; type: cell-based
RhoA = RhoA (Homo sapiens, UniProt P61586); assay: surface plasmon resonance; type: binding
RhoA, sequence (P61586 1-190): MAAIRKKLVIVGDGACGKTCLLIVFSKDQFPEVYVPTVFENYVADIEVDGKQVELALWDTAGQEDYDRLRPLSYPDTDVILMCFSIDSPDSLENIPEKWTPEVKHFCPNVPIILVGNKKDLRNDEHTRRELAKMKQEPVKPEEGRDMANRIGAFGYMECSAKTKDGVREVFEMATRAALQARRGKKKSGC

RhoA (HEK 293F cells), sequence (P61586 1-190): as above

## CCc1cccc([C@@H](O)CO)c1 [AH001]
RhoA (HEK 293F cells)
  IC50: 25.7 ± 1.18 nM
RhoA
  Kd: 73.2 nM
